Measurements as given in patent publication US10005767B2, “Compositions and methods for inhibition of the JAK pathway” (Rigel Pharmaceuticals, Inc., priority 2009, dated 2018).
Structures can show the parent of a compound that is named as a salt.

What follows are compounds tested on human primary T-cells, IL-2 stimulated proliferation (JAK-1 and JAK-3 dependent; reported as JAK3 activity) (assay: Human primary T-cell proliferation stimulated by IL-2 (Example 3)). Settings: Homo sapiens, T-cell, tested under conditions described in Example 3 (IL-2 stimulated human primary T-cell proliferation); read-out: ability to inhibit JAK3 activity, IC50 range (Table V).
Format: cell-based
How it was run: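 Peripheral-blood human T-cells pre-activated via TCR/CD28, IL-2-starved overnight, then cultured 72 h at 37 °C with compound in Yssel's medium containing IL-2 (80 U/mL in cell suspension). Proliferation read as viable-cell ATP by CellTiter-Glo luminescence; reduction versus control taken as JAK pathway inhibition.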

Row | SMILES | IC50
1 | COc1ccc(Nc2ncc(C)c(Nc3ccc4oc(=O)[nH]c4c3)n2)cc1Cl [Compound I-496, 5-[2-(3-Chloro-4-methoxy-phenylamino)-5-methyl-pyrimidin-4-ylamino]-3H-benzooxazol-2-one] | < 500 nM
2 | CCN(CC)C1CCN(C(=O)c2ccc(Nc3ncc(C)c(Nc4ccc5oc(=O)[nH]c5c4)n3)cc2)C1 (stereo not drawn) [Compound I-128, 5-{2-[4-(3-Diethylamino-pyrrolidine-1-carbonyl)-phenylamino]-5-methyl-pyrimidin-4-ylamino}-3H-benzooxazol-2-one] | < 500 nM
3 | Cc1cnc(Nc2ccc3c(c2)C(=O)CCCC3)nc1Nc1ccc2oc(=O)[nH]c2c1 [IV-2, N4-(benzo[d]oxazol-2(3H)-on-5-yl)-N2-(6,7,8,9-tetrahydro-5H-benzo[7]annulen-5-on-3-yl)-5-methylpyrimidine-2,4-diamine] | < 500 nM
4 | Cc1cnc(Nc2cc(C(C)O)cc(C(F)(F)F)c2)nc1Nc1ccc2oc(=O)[nH]c2c1 (stereo not drawn) [Compound I-446, 5-(2-(3-(1-hydroxyethyl)-5-(trifluoromethyl)phenylamino)-5-methylpyrimidin-4-ylamino)benzo[d]oxazol-2(3H)-one] | < 500 nM
5 | Cc1cnc(Nc2ccc(NC3CC4CCC(C3)N4C)nc2)nc1Nc1ccc2oc(=O)[nH]c2c1 (stereo not drawn) [II-37, N4-(benzo[d]oxazol-2(3H)-on-5-yl)-N2-[2-(8-methyl-8-aza-bicyclo[3.2.1]oct-3-yl)aminopyridin-5-yl]-5-methylpyrimidine-2,4-diamine] | 500 to 5000 nM
6 | COc1ccc(Nc2ncc(C)c(Nc3ccc4oc(=O)[nH]c4c3)n2)cc1C [Compound I-258, 5-(2-(4-methoxy-3-methylphenylamino)-5-methylpyrimidin-4-ylamino)benzo[d]oxazol-2(3H)-one] | < 500 nM
7 | COC(=O)N1C2CCC1CC(c1ncc(Nc3ncc(C)c(Nc4ccc5oc(=O)[nH]c5c4)n3)cc1C)C2 (stereo not drawn) [II-68, methyl 3-(3-methyl-5-(5-methyl-4-(2-oxo-2,3-dihydrobenzo[d]oxazol-5-ylamino)pyrimidin-2-ylamino)pyridin-2-yl)-8-azabicyclo[3.2.1]octane-8-carboxylate] | < 500 nM
8 | CN1CCN(c2ccc(Nc3ncc(F)c(Nc4ccc5oc(=O)[nH]c5c4)n3)cn2)CC1 [II-14, N4-(benzo[d]oxazol-2(3H)-on-5-yl)-N2-[2-(4-methylpiperazin-1-yl)pyridin-5-yl]-5-fluoropyrimidine-2,4-diamine] | < 500 nM
9 | Cc1cnc(Nc2cccc(C)c2F)nc1Nc1ccc2oc(=O)[nH]c2c1 [Compound I-513, 5-(2-(2-fluoro-3-methylphenylamino)-5-methylpyrimidin-4-ylamino)benzo[d]oxazol-2(3H)-one] | < 500 nM
10 | Cc1cnc(Nc2ccc(N3C[C@@H](C)N(C)[C@@H](C)C3)nc2)nc1Nc1ccc2oc(=O)[nH]c2c1 [II-127, 5-methyl-N4-(2-oxo-2,3-dihydro-1,3-benzoxazol-5-yl)-N2-[2-(cis-3,4,5-trimethylpiperazino)pyridin-5-yl]-2,4-pyrimidinediamine] | < 500 nM
11 | Cc1cnc(Nc2ccc(C(=O)NC3CCC3)cc2)nc1Nc1ccc2oc(=O)[nH]c2c1 [Compound I-138, N-Cyclobutyl-4-[5-methyl-4-(2-oxo-2,3-dihydro-benzooxazol-5-ylamino)-pyrimidin-2-ylamino]-benzamide formic acid salt] | < 500 nM
12 | COCCN1C(=O)COc2cc(Nc3ncc(C)c(Nc4ccc5oc(=O)[nH]c5c4)n3)ccc21 [IV-44, N2-[4-(2-methoxyethyl)-2H-1,4-benzoxazin-3 (4H)-one-7-yl]-5-methyl-N4-(2-oxo-2,3-dihydro-1,3-benzoxazol-5-yl)-2,4-pyrimidinediamine] | < 500 nM
13 | COc1cc(Nc2ncc(C)c(Nc3ccc4oc(=O)[nH]c4c3)n2)cc(C(C)N2CCCC2)c1 (stereo not drawn) [Compound I-234, 5-(2-(3-methoxy-5-(1-(pyrrolidin-1-yl)ethyl)phenylamino)-5-methylpyrimidin-4-ylamino)benzo[d]oxazol-2(3H)-one] | < 500 nM
14 | Cc1cnc(Nc2ccc3cnn(C)c3c2)nc1Nc1ccc2oc(=O)[nH]c2c1 [IV-41, 5-methyl-N2-(1-methylindazol-6-yl)-N4-(2-oxo-2,3-dihydro-1,3-benzoxazol-5-yl)-2,4-pyrimidinediamine] | < 500 nM
15 | N#Cc1cccc(Nc2ncc(F)c(Nc3ccc4oc(=O)[nH]c4c3)n2)c1 [Compound I-44, N4-(benzo[d]oxazol-2(3H)-on-5-yl)-N2-(3-cyanophenyl)-5-fluoropyrimidine-2,4-diamine] | < 500 nM
16 | Cc1cc(Nc2ncc(C)c(Nc3ccc4oc(=O)[nH]c4c3)n2)ccc1C(C)C [Compound I-166, 5-[2-(4-Isopropyl-3-methyl-phenylamino)-5-methyl-pyrimidin-4-ylamino]-3H-benzooxazol-2-one] | < 500 nM
17 | Cc1cnc(Nc2ccc(C(N)=O)c(Cl)c2)nc1Nc1ccc2oc(=O)[nH]c2c1 [Compound I-141, 2-Chloro-4-[5-methyl-4-(2-oxo-2,3-dihydro-benzooxazol-5-ylamino)-pyrimidin-2-ylamino]-benzamide trifluoroacetic acid salt] | < 500 nM
18 | Cc1cnc(Nc2ccc(N3CCC4CCC3N4C)cc2)nc1Nc1ccc2oc(=O)[nH]c2c1 (stereo not drawn) [Compound I-123, N4-(benzo[d]oxazol-2(3H)-on-5-yl)-N2-(4-(8-methyl-2,8-diazabicyclo[3.2.1]octan-2-yl)phenyl)-5-methylpyrimidine-2,4-diamine] | < 500 nM
19 | Cc1cnc(Nc2ccc(N3CC4(C)CN(C)CC(C)(C3)C4)c(F)c2)nc1Nc1ccc2oc(=O)[nH]c2c1 [Compound I-6, N4-(benzo[d]oxazol-2(3H)-on-5-yl)-N2-(3-fluoro-4-(1,5,7-trimethyl-3,7-diazabicyclo[3.3.1]nonan-3-yl)phenyl)-5-methylpyrimidine-2,4-diamine] | < 500 nM
20 | Cc1cnc(Nc2cccc(C(C)NC(C)C)c2)nc1Nc1ccc2oc(=O)[nH]c2c1 (stereo not drawn) [Compound I-209, 5-(2-(3-(1-(isopropylamino)ethyl)phenylamino)-5-methylpyrimidin-4-ylamino)benzo[d]oxazol-2(3H)-one] | < 500 nM
21 | Cc1cnc(Nc2cnc(N3C[C@@H]4C[C@H]3CN4C)c(C)c2)nc1Nc1ccc2oc(=O)[nH]c2c1 [II-28, N4-(benzoxazolin-2-on-5-yl)-N2-[3-methyl-2-((1S,4S)-5-methyl-2,5-diazabicyclo[2.2.1]heptan-2-yl)pyridin-5-yl]-5-methylpyrimidine-2,4-diamine] | < 500 nM
22 | Cc1cnc(Nc2cccc(C(F)(F)F)c2)nc1Nc1ccc2oc(=O)[nH]c2c1 [Compound I-158, 5-[5-Methyl-2-(3-trifluoromethyl-phenylamino)-pyrimidin-4-ylamino]-3H-benzooxazol-2-one] | < 500 nM
23 | Cc1cnc(Nc2ccc3onc(C)c3c2)nc1Nc1ccc2oc(=O)[nH]c2c1 [IV-9, N4-(benzo[d]oxazol-2(3H)-on-5-yl)-N2-(3-methyl-1,2-benzisoxazol-5-yl)-5-methylpyrimidine-2,4-diamine] | < 500 nM
24 | Cc1cnc(Nc2cc(F)cc(N3CCN(C)CC3)c2)nc1Nc1ccc2oc(=O)[nH]c2c1 [Compound I-241, 5-(2-(3-fluoro-5-(4-methylpiperazin-1-yl)phenylamino)-5-methylpyrimidin-4-ylamino)benzo[d]oxazol-2(3H)-one] | < 500 nM
25 | Cc1cnc(Nc2cccc(F)c2F)nc1Nc1ccc2oc(=O)[nH]c2c1 [Compound I-467, 5-[2-(2,3-Difluoro-phenylamino)-5-methyl-pyrimidin-4-ylamino]-3H-benzooxazol-2-one] | < 500 nM
26 | Cc1cnc(Nc2cnc(N3CC4CCC(C3)N4)c(C)c2)nc1Nc1ccc2oc(=O)[nH]c2c1 [II-61, 5-(2-(6-(3,8-diaza-bicyclo[3.2.1]octan-3-yl)-5-methylpyridin-3-ylamino)-5-methylpyrimidin-4-ylamino)benzo[d]oxazol-2(3H)-one] | < 500 nM

Same assay, conditions: tested under conditions described in Example 3 (IL-2 stimulated human primary T-cell proliferation); read-out: ability to inhibit JAK3 activity, IC50 range (Table V)

Row | SMILES | IC50
27 | COc1cc(Nc2ncc(C)c(Nc3ccc4oc(=O)[nH]c4c3)n2)ccc1N1CCN(C)CC1 [Compound I-340, N2-[3-methoxy-4-(4-methylpiperazino)]phenyl-5-methyl-N4-(2-oxo-2,3-dihydro-1,3-benzoxazol-5-yl)-2,4-pyrimidinediamine] | < 500 nM
28 | NS(=O)(=O)c1cccc(Nc2ncc(F)c(Nc3ccc4oc(=O)[nH]c4c3)n2)c1 [Compound I-18] | < 500 nM
29 | Cc1cnc(Nc2ccc(S(N)(=O)=O)cc2)nc1Nc1ccc2[nH]c(=O)[nH]c2c1 [Compound I-12, N4-(benzimidazolin-2-on-5-yl)-N2-((4-aminosulfonyl)phenyl)-5-methylpyrimidine-2,4-diamine] | > 10000 nM
30 | CCN1CCN(c2ccc(Nc3ncc(C)c(Nc4ccc5oc(=O)[nH]c5c4)n3)cc2Cl)CC1 [Compound I-278, N2-[3-chloro-4-(4-ethylpiperazino)]phenyl-5-methyl-N4-(2-oxo-2,3-dihydro-1,3-benzoxazol-5-yl)-2,4-pyrimidinediamine] | < 500 nM
31 | Cc1cnc(Nc2ccc(F)c(NS(C)(=O)=O)c2)nc1Nc1ccc2[nH]c(=O)oc2c1 [Compound I-105, N2-((4-fluoro-3-methylsulfonylamino)phenyl)-N4-(2-oxo-2,3-dihydrobenzo[d]oxazol-6-yl)-5-methylpyrimidine-2,4-diamine] | > 10000 nM
32 | Cc1ccc(Nc2ncc(F)c(Nc3ccc4oc(=O)n(C)c4c3)n2)cc1NS(C)(=O)=O [Compound I-85, N2-((3-methylsulfonylamino-4-methyl)phenyl)-N4-(3-methyl-2-oxo-2,3-dihydrobenzo[d]oxazol-5-yl)-5-fluoropyrimidine-2,4-diamine] | 500 to 5000 nM
33 | Cc1cnc(Nc2ccc(N3CCOC[C@@H]3C)nc2)nc1Nc1ccc2oc(=O)[nH]c2c1 [II-134, 5-methyl-N2-[2-(3 S-methylmorpholino)pyridin-5-yl]-N4-(2-oxo-2,3-dihydro-1,3-benzoxazol-5-yl)-2,4-pyrimidinediamine] | < 500 nM
